In US7470442B2, “Confectionary compositions with magnolia bark extract” (GIC Innovations Company, priority 2005, dated 2008):
≈ marks a conversion by molar mass, not a printed value.

Key:
Type in all cases: cell-based
incubated saliva = assay: MIC of surface active agents and emulsifiers on incubated saliva, two-fold serial dilution; settings: for MIC (ppm) / MIC: 24 hours at 37° C.; for germ-kill efficacy in words: summary of Table 9
Experimental: (§1) To evaluate the germ-kill efficacy and synergist effect when two or more germ-kill actives are combined, testing was performed to determine the ratio of MBE to surface active agent. The germ-kill active and/or surface active agent were dissolved in ethanol or sterile water to give an initial concentration 0.1% to 1%. The solution was diluted with a nutrient broth to give an initial concentration of 0.05% to 0.5%, which was then serially diluted two-fold so that each subsequent dilution contained 50% of the compound concentration of the previous dilution while maintaining a constant level of nutrients for each dilution. These dilutions were inoculated with representative oral microorganisms, or incubated saliva, and incubated for 24 hours at 37° C. For each surface active agent, the lowest dilution that was not turbid was registered as the MIC. The MBC was determined by transferring 10 microliter of liquid from non-turbid tubes to fresh growth media and incubated for 48 hours.

Fusobacterium nucleatum [1] = assay: Minimum-Inhibitory-Concentrations (MIC) study, 96-well microtiter plates; settings: 48 hours, 37° C., turbidity at 660 nm
Experimental: (§2) To evaluate the effectiveness of Magnolia Bark Extract, in vitro tests were conducted with three subgingival plaque bacteria associated with oral malodor. The Minimum-Inhibitory-Concentrations (MIC) study protocol is as follows. Chlorhexidine was used as a positive control and sterile water was used as a negative control. Menthol and Tween 80 was used as a solvent for Magnolia Bark Extract. Tween 80 is the common name for Polysorbate 80. Ninety-six-well microtiter plates were used for this study. Each well contained 5×10^5 colony forming units/ml of bacteria, serially diluted agents and bacterial growth medium. All bacterial cultures were incubated at 37° C. and stationary. Bacterial growth was estimated spectrophotometrically at 660 nm, after 48 hours.

Porphyromonas gingivalis [2] = assay: as above; settings: 48 hours, 37° C., turbidity at 660 nm
Experimental: as §2

Streptococcus mutans [3] = assay: as above; settings: 48 hours, 37° C., turbidity at 660 nm
Experimental: as §2

[4] = test system: bacteria from freshly-collected stimulated whole saliva; assay: Mixed culture saliva biofilm on saliva-coated hydroxyapatite discs, timed exposure to actives
Experimental: Although useful to show the comparative effect of Magnolia Bark Extract on biofilm formation and MIC growth, the foregoing test procedure may not effectively mimic the in vivo exposure of a confectionary composition such as a pressed tablet to a developing plaque biofilm. In an in vivo situation, the active could be exposed to the plaque for a defined period of time at a set frequency (for example, for 5 minutes, three times a day). Therefore, a series of comparative experiments were conducted to mimic the in vivo use of potential active ingredients. To perform the tests the saliva compositions listed below in Tables 2 and 3 were prepared. A mixed culture system that utilizes the bacteria from freshly-collected stimulated whole saliva was used. Saliva cell pellets were used to inoculate saliva-coated hydroxyapatite (S-HA) discs. The discs were placed in 24-well cell culture plates and incubated for up to 3 days. Biofilms were exposed to actives on days 2 and 3 (starting at 18 hours), and quantified on day 4. The number of bacteria was determined by spectrophotometric absorbance or optical density (OD) at 600 nm. The five phases of the experiment were: pellicle formation; bacterial attachment; biofilm growth; exposure to actives; and bacterial enumeration. To form the pellicles, HA Discs were ultrasonically washed in deionized water and air-dried, then autoclaved. The discs were placed in a 24-well plate with 1 ml 50% sterile saliva (1 part sterile whole saliva: 1 part saliva buffer, filter sterilize after preparation) for 2 hours on slow agitation at room temperature. The saliva was suctioned and then the discs were transferred to fresh wells for bacterial attachment. To form the biofilms, the bacterial suspension was removed, and the discs were transferred to fresh wells. One ml of supplemented saliva medium was added and the plate was placed in the incubator for overnight incubation and for the duration of the experiment (up to 72 hours). A stock solution of 1% Magnolia Bark Extract in 60% ethanol was prepared. Magnolia Bark Extract samples were prepared having a concentration range of 125, 250, 500, and 1000 μg/ml (ppm) in a Phosphate-Buffered-Saline (PBS) solution, where the negative control was PBS and the positive control was CHX having a concentration of 0.12%. […] One ml quantities of active ingredients and controls were placed into fresh wells, and the discs were transferred to these wells for 5 minutes. The chlorhexidine control exposure was one minute, two times a day to mimic the standard mouth-rinse procedure. The exposure to active ingredient was carried out at 8:00 AM, 12:00 and 4:00 PM. After the timed exposure, the solution was removed and the discs washed twice with PBS and then transferred to fresh medium. For some experiments, the medium used during the day was TSB (Tryptic Soy Broth) with a 50 μl 40% sterile sucrose solution added to each well (to give a 2% sucrose solution). The medium was not replaced after the mid-day exposure. After overnight incubation (day 2), discs were exposed to controls and actives. On day 3 the biofilms were again exposed to tests and controls. On day 4 the discs were removed from the medium, the medium pH was measured to obtain an indication of metabolic activity, and the discs were placed into tubes with 2.5 ml PBS, vortexed for 20 sec, and then placed into the ultrasonic bath for another 20 sec. The suspension was transferred into cuvettes and the bacterial cell density determined by OD measurements at 600 nm. To evaluate the effect of Magnolia Bark Extract in combination with the surface active agent, sodium lauryl sulfate, five active ingredient solutions were prepared using the procedures described above. […] Also, the MBE solutions were prepared to have a concentration of 500 ppm. Sodium lauryl sulfate was added to two of the Magnolia Bark Extract solutions to obtain SLS concentrations of 0.05% and 0.1% in the Magnolia Bark Extract solutions. […]

S. mutans biofilm [5] = assay: Effect on detachment of S. mutans biofilm; settings: pre-formed 48 h S. mutans biofilm, 30 min exposure
Experimental: Further to the results described above, the effect of Magnolia Bark Extract on biofilm formation and removal was compared with different herbal and natural ingredients. Comparative testing was performed using green tea extract, Oolong tea extract, Licorice, and Magnolia Bark Extract. The comparative testing included determining the solubility in water, ethanol, water:ethanol mixtures and other solvents (for example, Tween in water), MIC for growth of S. mutans, MIC for formation of S. mutans biofilm in 96-well plates, and the effect on detachment of S. mutans biofilm. To further evaluate the effect on S. mutans biofilm detachment, sterile 96-well microtiter plates were used where each well was inoculated with S. mutans (5×10^6 CFU/ml), growth medium (BHI supplemented with 0.5% sucrose), and incubated at 37° C. under aerobic condition for biofilm formation. After 48 hours, the non-attached supernatant was aspirated and serially diluted. […] After 30 min, the supernatant was aspirated from wells and the biofilm remaining after treatment was dissolved in 200 μl 1N NaOH, and quantitated at 660 nm using the plate reader. […] If detachment of the biofilm by action of the test compounds occurred, the spectrophotometric absorbance or optical density (OD) should show a decrease compared to the non-treated control.

Streptococcus mutans [6] = assay: Minimum-Bactericidal-Concentrations (MBC), plating on blood agar; settings: kills at least 99.9% of initial inoculum
Fusobacterium nucleatum [7] = assay: as above; settings: kills at least 99.9% of initial inoculum
S. mutans [8] = assay: MIC for growth of S. mutans (comparative testing); settings: Streptococcus mutans, BHI with 0.5% sucrose, 48 h
Experimental: (§3) Further to the results described above, the effect of Magnolia Bark Extract on biofilm formation and removal was compared with different herbal and natural ingredients. Comparative testing was performed using green tea extract, Oolong tea extract, Licorice, and Magnolia Bark Extract. The comparative testing included determining the solubility in water, ethanol, water:ethanol mixtures and other solvents (for example, Tween in water), MIC for growth of S. mutans, MIC for formation of S. mutans biofilm in 96-well plates, and the effect on detachment of S. mutans biofilm. To further evaluate the effect on S. mutans biofilm formation, 96-well microtiter plates were used. Each well contained S. mutans (5×10^6 CFU/ml), and was serially diluted with test compounds and growth medium (brain heart infusion broth (BHI) with 0.5% sucrose). The controls included inoculated growth medium without test compounds. All plates were incubated at 37° C. under aerobic condition with growth estimated spectrophotometrically (660 nm) after 48 h using a microtiter plate reader. Then, the supernatant containing unattached cells was removed from each wells by aspiration, the attached biofilm mass was dissolved with 200 μl 1 N NaOH and the optical density was measured at 660 nm using the microtiter plate reader. Chlorhexidine (40 μg/ml) was used as a positive control.

S. mutans biofilm [9] = assay: MIC for formation of S. mutans biofilm in 96-well plates; settings: BHI with 0.5% sucrose, 48 h, attached biofilm OD 660 nm
Experimental: as §3

Porphyromonas gingivalis [10] = assay: Minimum-Bactericidal-Concentrations (MBC), plating on blood agar; settings: kills at least 99.9% of initial inoculum
Experimental: as §2, with “hours. […] The Minimum-Bactericidal-Concentrations (MBC) were determined using the 96-well microtiter plate serial dilutions as described above for MIC studies. Serial dilutions of cultures in wells showing no visible growth were performed and 10 microliters of culture were plated in triplicate on blood agar plates. Viable colonies were scored after incubation of the plates for 48 hours at 37° C. For each test bacterium, the number of colony forming units/ml (CFU/ml) was determined in the initial inoculum. The MBC was defined as the lowest concentration of a test compound that killed at least 99.9% of the cells present in the initial inoculum.” for “hours.”

S. mutans [11] = assay: MIC and fractional inhibitory index of combinations on S. mutans; settings: 24 hours at 37° C.
Experimental: as §1, with “hours. […] (1) where an FIC value of less than 1.0 is synergistic, an FIC between 1.0 and 2.0 is additive, and an FIC greater than 2.0 is antagonistic.” for “hours.”

[12] = CHX 0.12%, one minute, two times a day, day 4
[13] = repeat experiment with SLS, CHX 0.1% (1000 ppm)
[14] = repeat experiment with SLS, SLS 1000 ppm

Sodium Stearoyl Lactylate
MIC (ppm) (incubated saliva): >3000 ppm
germ-kill efficacy in words (incubated saliva): weak or non germ-kill actives

[H]/N=C(\N/C(=N/[H])NCCCCCCNC(=N)NC(=N)Nc1ccc(Cl)cc1)Nc1ccc(Cl)cc1 [CHX, chlorhexidine]
MIC (Fusobacterium nucleatum [1]): 1.25 µg/mL (≈ 2.47 µM)
MIC (Porphyromonas gingivalis [2]): 1.25 µg/mL (≈ 2.47 µM)
MIC (Streptococcus mutans [3]): 1.25 µg/mL (≈ 2.47 µM)
% OD reduction at 600 nm compared to PBS control [4, 12]: 84%
pH of the medium (metabolic activity) [4, 12]: 8.8
% OD reduction at 600 nm [4, 13]: 94%
pH of the medium (metabolic activity) [4, 13]: 8.8
MIC biofilm detachment (S. mutans biofilm [5]): >10 µg/mL
MBC (Streptococcus mutans [6]): 1.25 µg/mL (≈ 2.47 µM)
MBC (Fusobacterium nucleatum [7]): 1.25 µg/mL (≈ 2.47 µM)
MIC (S. mutans [8]): 2.5 µg/mL (≈ 4.95 µM)
MIC biofilm formation (S. mutans biofilm [9]): 2.5 µg/mL (≈ 4.95 µM)
MBC (Porphyromonas gingivalis [10]): 1.25 µg/mL (≈ 2.47 µM)

N=C(NCCCCCCNC(=N)NC(=N)Nc1ccc(Cl)cc1)NC(=N)Nc1ccc(Cl)cc1.O=C(O)[C@H](O)[C@@H](O)[C@H](O)[C@H](O)CO.O=C(O)[C@H](O)[C@@H](O)[C@H](O)[C@H](O)CO [Chlorhexidine gluconate, reference compound]
MIC (ppm) (incubated saliva): 2 ppm
MIC/ppm (S. mutans [11]): 2 ppm

Sucrose Distearate
MIC (ppm) (incubated saliva): >500 ppm
germ-kill efficacy in words (incubated saliva): weak or non germ-kill actives

CCCCCCCCCCCCOS(=O)(=O)[O-].[Na+] [SLS, sodium lauryl sulfate]
MIC (incubated saliva): 50 µg/mL
germ-kill efficacy in words (incubated saliva): good germ-kill surface active agents
% OD reduction at 600 nm [4, 14]: 61%
pH of the medium (metabolic activity) [4, 14]: 5.7
MIC/ppm (S. mutans [11]): 100 ppm

Sucrose Stearate
MIC (ppm) (incubated saliva): >500 ppm
germ-kill efficacy in words (incubated saliva): weak or non germ-kill actives

CCCCCCCCCCCC(=O)OCCOCCOCCOCCOCCOCCOCCOCCOCCOCCOCCOCCOCCOCCOCCOCCOCCOCCOCCOCCOCC(OCCOCCOCCOCCOCCOCCOCCOCCOCCOCCOCCOCCOCCOCCOCCOCCOCCOCCOCCOCCO)C1OCC(OCCOCCOCCOCCOCCOCCOCCOCCOCCOCCOCCOCCOCCOCCOCCOCCOCCOCCOCCOCCO)C1OCCOCCOCCOCCOCCOCCOCCOCCOCCOCCOCCOCCOCCOCCOCCOCCOCCOCCOCCOCCO (stereo not shown) [Tween 20, Polysorbate 20]
MIC (incubated saliva): > 1000 µg/mL
germ-kill efficacy in words (incubated saliva): weak or non germ-kill actives

Cocamidopropyl Betaine
germ-kill efficacy in words (incubated saliva): good germ-kill surface active agents

Sodium Brasslate
MIC (ppm) (incubated saliva): 500 ppm
germ-kill efficacy in words (incubated saliva): moderate germ-kill efficacy
